According to PubChem BioAssay (NCI):
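Briefly, cells in 96-well plates were exposed to five compound concentrations for 48 h, and endpoints were estimated by linear interpolation. The concentration for 50% growth inhibition is given as GI50. TGI: total growth inhibition.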

Columns and labels:
Assay in all cases: NCI tumour cell line growth inhibition, 48 h
786-0 renal = system: 786-0 renal
A549 NSCLC = system: A549 NSCLC
ACHN renal = system: ACHN renal
BT-549 breast = system: BT-549 breast
CAKI-1 renal = system: CAKI-1 renal
CCRF-CEM leukemia = system: CCRF-CEM leukemia
COLO 205 colon = system: COLO 205 colon
DU-145 prostate = system: DU-145 prostate
EKVX NSCLC = system: EKVX NSCLC
HCC-2998 colon = system: HCC-2998 colon
HCT-116 colon = system: HCT-116 colon
HCT-15 colon = system: HCT-15 colon
HL-60(TB) leukemia = system: HL-60(TB) leukemia
HOP-62 NSCLC = system: HOP-62 NSCLC
HOP-92 NSCLC = system: HOP-92 NSCLC
HS 578T breast = system: HS 578T breast
HT29 colon = system: HT29 colon
IGROV1 ovarian = system: IGROV1 ovarian
KM12 colon = system: KM12 colon
LOX IMVI melanoma = system: LOX IMVI melanoma
M14 melanoma = system: M14 melanoma
MCF7 breast = system: MCF7 breast
MDA-MB-231 breast = system: MDA-MB-231 breast
MDA-MB-435 = system: MDA-MB-435
MOLT-4 leukemia = system: MOLT-4 leukemia
NCI-H226 lung = system: NCI-H226 lung
NCI-H23 lung = system: NCI-H23 lung
NCI-H460 lung = system: NCI-H460 lung
NCI-H522 lung = system: NCI-H522 lung
NCI/ADR-RES ovarian = system: NCI/ADR-RES ovarian
OVCAR-3 ovarian = system: OVCAR-3 ovarian
OVCAR-4 ovarian = system: OVCAR-4 ovarian
OVCAR-5 ovarian = system: OVCAR-5 ovarian
OVCAR-8 ovarian = system: OVCAR-8 ovarian
PC-3 prostate = system: PC-3 prostate
RXF 393 renal = system: RXF 393 renal
SF-268 CNS = system: SF-268 CNS
SF-295 CNS = system: SF-295 CNS
SF-539 CNS = system: SF-539 CNS
SK-MEL-2 melanoma = system: SK-MEL-2 melanoma
SK-MEL-28 melanoma = system: SK-MEL-28 melanoma
SK-MEL-5 melanoma = system: SK-MEL-5 melanoma
SK-OV-3 ovarian = system: SK-OV-3 ovarian
SN12C renal = system: SN12C renal
SNB-19 CNS = system: SNB-19 CNS
SNB-75 CNS = system: SNB-75 CNS
SW-620 colon = system: SW-620 colon
TK-10 renal = system: TK-10 renal
U251 CNS = system: U251 CNS
UACC-257 melanoma = system: UACC-257 melanoma
UACC-62 melanoma = system: UACC-62 melanoma
UO-31 renal = system: UO-31 renal
A498 renal = system: A498 renal
K-562 leukemia = system: K-562 leukemia

In the case of `NC(=S)N/N=C(\Cc1nc2ccc(Cl)cc2[nH]c1=O)C(=O)Nc1ccc(Cl)cc1`, the TGI (786-0 renal) is reported as greater than 100 µM, the TGI (A549 NSCLC) is reported as greater than 100 µM and the TGI (ACHN renal) is reported as greater than 100 µM. The TGI (BT-549 breast) was greater than 100 µM, the TGI (CAKI-1 renal) was greater than 100 µM and the TGI (CCRF-CEM leukemia) was greater than 100 µM. It also gave a TGI (COLO 205 colon) greater than 100 µM, a TGI (DU-145 prostate) greater than 100 µM and a TGI (EKVX NSCLC) greater than 100 µM. It also gave a TGI (HCC-2998 colon) greater than 100 µM, a TGI (HCT-116 colon) greater than 100 µM and a TGI (HCT-15 colon) greater than 100 µM. The TGI (HL-60(TB) leukemia) was greater than 100 µM, the TGI (HOP-62 NSCLC) was greater than 100 µM and the TGI (HOP-92 NSCLC) was greater than 100000 nM. For the same molecule, the TGI (HS 578T breast) was greater than 100 µM, the TGI (HT29 colon) was greater than 100 µM and the TGI (IGROV1 ovarian) was greater than 100 µM. It also gave a TGI (KM12 colon) greater than 100 µM, a TGI (LOX IMVI melanoma) greater than 100 µM and a TGI (M14 melanoma) greater than 100 µM. The TGI (MCF7 breast) was greater than 100 µM, the TGI (MDA-MB-231 breast) was greater than 100 µM and the TGI (MDA-MB-435) was greater than 100 µM. For the same molecule, the TGI (MOLT-4 leukemia) was greater than 100 µM, the TGI (NCI-H226 lung) was greater than 100 µM and the TGI (NCI-H23 lung) was greater than 100 µM. The TGI (NCI-H460 lung) was greater than 100 µM, the TGI (NCI-H522 lung) was greater than 100 µM and the TGI (NCI/ADR-RES ovarian) was greater than 100 µM. The TGI (OVCAR-3 ovarian) was greater than 100 µM, the TGI (OVCAR-4 ovarian) was greater than 100 µM and the TGI (OVCAR-5 ovarian) was greater than 100 µM. It also gave a TGI (OVCAR-8 ovarian) greater than 100 µM, a TGI (PC-3 prostate) greater than 100 µM and a TGI (RXF 393 renal) greater than 100 µM. It also gave a TGI (SF-268 CNS) greater than 100 µM, a TGI (SF-295 CNS) greater than 100 µM and a TGI (SF-539 CNS) greater than 100 µM. For the same molecule, the TGI (SK-MEL-2 melanoma) was greater than 100 µM, the TGI (SK-MEL-28 melanoma) was greater than 100 µM and the TGI (SK-MEL-5 melanoma) was greater than 100 µM. For the same molecule, the TGI (SK-OV-3 ovarian) was greater than 100 µM, the TGI (SN12C renal) was greater than 100 µM and the TGI (SNB-19 CNS) was greater than 100 µM. The TGI (SNB-75 CNS) was greater than 100000 nM, the TGI (SW-620 colon) was greater than 100 µM and the TGI (TK-10 renal) was greater than 100 µM. The TGI (U251 CNS) was greater than 100 µM, the TGI (UACC-257 melanoma) was greater than 100 µM and the TGI (UACC-62 melanoma) was greater than 100 µM. The TGI (UO-31 renal) was greater than 100000 nM.
In the case of `Fc1ccc2c(c1)c(-c1nc(-c3c[nH]c4ncccc34)cs1)cn2CCCN1CCCCC1`, the GI50 (786-0 renal) is reported as 1650 nM, the TGI (786-0 renal) is reported as 3.1 µM and the GI50 (A498 renal) is reported as 2570 nM. The TGI (A498 renal) was 6.48 µM, the GI50 (A549 NSCLC) was 1910 nM and the TGI (A549 NSCLC) was 3.62 µM. The GI50 (BT-549 breast) was 3.72 µM, the TGI (BT-549 breast) was 14.5 µM and the GI50 (COLO 205 colon) was 1730 nM. For the same molecule, the TGI (COLO 205 colon) was 3.48 µM, the GI50 (DU-145 prostate) was 1740 nM and the TGI (DU-145 prostate) was 3.26 µM. For the same molecule, the GI50 (HCC-2998 colon) was 1700 nM, the TGI (HCC-2998 colon) was 3.14 µM and the GI50 (HCT-116 colon) was 1750 nM. It also gave a TGI (HCT-116 colon) of 3.3 µM, a GI50 (HOP-92 NSCLC) of 1470 nM and a TGI (HOP-92 NSCLC) of 2950 nM. It also gave a GI50 (HS 578T breast) of 2590 nM, a TGI (HS 578T breast) of 7.69 µM and a GI50 (HT29 colon) of 1680 nM. It also gave a TGI (HT29 colon) of 3.24 µM, a GI50 (K-562 leukemia) of 1720 nM and a TGI (K-562 leukemia) of 3.6 µM. For the same molecule, the GI50 (M14 melanoma) was 1760 nM, the TGI (M14 melanoma) was 3.48 µM and the GI50 (MDA-MB-231 breast) was 1690 nM. For the same molecule, the TGI (MDA-MB-231 breast) was 3.18 µM, the GI50 (MDA-MB-435) was 1660 nM and the TGI (MDA-MB-435) was 3.17 µM. For the same molecule, the GI50 (NCI-H23 lung) was 1640 nM, the TGI (NCI-H23 lung) was 3.13 µM and the GI50 (NCI/ADR-RES ovarian) was 1640 nM. For the same molecule, the TGI (NCI/ADR-RES ovarian) was 3.15 µM, the GI50 (OVCAR-3 ovarian) was 1630 nM and the TGI (OVCAR-3 ovarian) was 3.12 µM. For the same molecule, the GI50 (OVCAR-4 ovarian) was 1830 nM, the TGI (OVCAR-4 ovarian) was 4.01 µM and the GI50 (OVCAR-5 ovarian) was 1610 nM. For the same molecule, the TGI (OVCAR-5 ovarian) was 3.1 µM, the GI50 (PC-3 prostate) was 1690 nM and the TGI (PC-3 prostate) was 3.2 µM. It also gave a GI50 (SF-268 CNS) of 1640 nM, a TGI (SF-268 CNS) of 3.42 µM and a GI50 (SF-539 CNS) of 1670 nM. For the same molecule, the TGI (SF-539 CNS) was 3.1 µM, the GI50 (SK-MEL-2 melanoma) was 1960 nM and the TGI (SK-MEL-2 melanoma) was 4.25 µM. The GI50 (SK-MEL-28 melanoma) was 1750 nM, the TGI (SK-MEL-28 melanoma) was 3.26 µM and the GI50 (SK-MEL-5 melanoma) was 1760 nM. For the same molecule, the TGI (SK-MEL-5 melanoma) was 3.17 µM, the GI50 (SK-OV-3 ovarian) was 1810 nM and the TGI (SK-OV-3 ovarian) was 3.43 µM. It also gave a GI50 (SN12C renal) of 1740 nM, a TGI (SN12C renal) of 3.31 µM and a GI50 (SNB-75 CNS) of 1340 nM. The TGI (SNB-75 CNS) was 2980 nM, the GI50 (SW-620 colon) was 1920 nM and the TGI (SW-620 colon) was 3.75 µM. For the same molecule, the GI50 (TK-10 renal) was 1850 nM, the TGI (TK-10 renal) was 3.42 µM and the GI50 (U251 CNS) was 1820 nM. For the same molecule, the TGI (U251 CNS) was 3.33 µM, the GI50 (UACC-257 melanoma) was 1920 nM and the TGI (UACC-257 melanoma) was 3.7 µM. For the same molecule, the GI50 (UO-31 renal) was 1280 nM and the TGI (UO-31 renal) was 2640 nM.
